These results are taken from patent publication US20250034110A1, “LPAR1 ANTAGONISTS AND USES THEREOF” (Pipeline Therapeutics, Inc., priority 2021, published 2025).

SMILES strings stand for the structures. Where two headings read alike, the source gives them in different places.

This test addresses human LPAR1 (Homo sapiens, UniProt Q92633). Kind of test: In vitro functional assay of lysophosphatidic acid receptor 1 activity (calcium flux). The class given is cell-based. (In general: Calcium assays in cells follow changes in intracellular calcium, usually with a dye or a luminescent sensor.)
Setting [1] is: B103 cells stably expressing human LPAR1, calcium flux (Fluo-4 NW) after lysophosphatidic acid (18:1) at EC80, 100 pM to 10 μM, read-out: LPAR1 IC50.

Sequence of human LPAR1 (Q92633 whole entry): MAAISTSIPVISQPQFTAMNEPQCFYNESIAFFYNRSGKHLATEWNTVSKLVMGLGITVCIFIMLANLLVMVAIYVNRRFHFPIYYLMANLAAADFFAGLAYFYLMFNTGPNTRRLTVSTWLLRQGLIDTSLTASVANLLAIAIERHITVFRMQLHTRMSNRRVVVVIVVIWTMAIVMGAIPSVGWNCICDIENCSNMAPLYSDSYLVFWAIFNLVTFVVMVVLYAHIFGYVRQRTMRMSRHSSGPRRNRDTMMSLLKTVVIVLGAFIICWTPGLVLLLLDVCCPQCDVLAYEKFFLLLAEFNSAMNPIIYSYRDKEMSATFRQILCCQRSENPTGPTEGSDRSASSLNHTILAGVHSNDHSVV

For the compound `CC(=O)N1CC[C@H]1CN(C(=O)Nc1ccc(C)nc1OC(F)F)c1ccccc1C(C)C` [Example 72, (S)-1-((1-acetylazetidin-2-yl)methyl)-3-(2-(difluoromethoxy)-6-methylpyridin-3-yl)-1-(2-isopropylphenyl)urea], under setting [1], the IC50 lay in the range of 100 to 1000 nM. The same measure, in the same setting: then `COc1ccc(NC(=O)N(c2ccccc2C2CC2)[C@H]2CC[C@@H](C(=O)O)CC2)c(OC(F)F)n1` [Example 274], with 100 to 1000 nM. Same read-out and setting: the figure for `Cc1ccc(NC(=O)N(c2ccccc2C(C)C)[C@H]2C[C@H](C#N)C2)c(OC(F)F)n1` [Example 25, 1-((1r,3r)-3-cyanocyclobutyl)-3-(2-(difluoromethoxy)-6-methylpyridin-3-yl)-1-(2-isopropylphenyl)urea] is 100 to 1000 nM; for `CC(=O)N1CCC2(CC1)CC(N(C(=O)Nc1ccc(C)nc1OC(F)F)c1ccccc1C(C)C)C2` [Example 251, 1-(7-acetyl-7-azaspiro[3.5]nonan-2-yl)-3-(2-(difluoromethoxy)-6-methylpyridin-3-yl)-1-(2-isopropylphenyl)urea] it is > 1000 nM; for `Cc1ccc(NC(=O)N(c2ccccc2C(C)C)[C@H]2C[C@@H](C(=O)O)C2)c(OC(F)F)n1` [Example 162, cis-3-(3-(2-(difluoromethoxy)-6-methylpyridin-3-yl)-1-(2-isopropylphenyl)ureido)cyclobutane-1-carboxylic acid] it is 100 to 1000 nM. Still for that read-out and setting: then `COc1ccc(NC(=O)N(c2ccccc2C(C)C)C2CCCN(C(C)=O)C2)c(OC(F)F)n1` (stereo not drawn) [Example 43, 1-(1-acetylpiperidin-3-yl)-3-(2-(difluoromethoxy)-6-methoxypyridin-3-yl)-1-(2-isopropylphenyl)urea], with 100 to 1000 nM.

For `COC(=O)N1CCC(N(C(=O)Nc2ccc(OC)nc2OC(F)F)c2ccccc2C(C)C)CC1` [Example 63, methyl 4-(3-(2-(difluoromethoxy)-6-methoxypyridin-3-yl)-1-(2-isopropylphenyl)ureido)piperidine-1-carboxylate], the IC50 (LPAR1 IC50) was 10 to 100 nM.

On to `COc1ccc(NC(=O)N(c2ccccc2C(C)C)[C@@H]2CCN(C3COC3)C2)c(OC(F)F)n1` [Example 37, (R)-3-(2-(difluoromethoxy)-6-methoxypyridin-3-yl)-1-(2-isopropylphenyl)-1-(1-(oxetan-3-yl)pyrrolidin-3-yl)urea], for which the IC50 under setting [1] lay in the range of 100 to 1000 nM. On the same count and under the same terms, the figure for `Cc1ccc(NC(=O)N(c2ccccc2C(C)C)C2CCC(=O)N(C)C2)c(OC(F)F)n1` (stereo not drawn) [Example 4, 3-(2-(difluoromethoxy)-6-methylpyridin-3-yl)-1-(2-isopropylphenyl)-1-(1-methyl-6-oxopiperidin-3-yl)urea] is 10 to 100 nM; for `Cc1ccc(NC(=O)N(c2ccccc2C(C)C)C2CC(O)(C(F)(F)F)C2)c(OC(F)F)n1` (stereo not drawn) [Example 196, 3-(2-(difluoromethoxy)-6-methylpyridin-3-yl)-1-(3-hydroxy-3-(trifluoromethyl)cyclobutyl)-1-(2-isopropylphenyl)urea] it is > 1000 nM; for `Cc1ccc(NC(=O)N(CC2CC(C(=O)O)C2)c2ccccc2C(C)C)c(OC(F)F)n1` (stereo not drawn) [Example 170] it is < 10 nM. Same read-out and setting: the figure for `CC(C)c1ccccc1N(C(=O)Nc1ccc(C2CC2)nc1OC(F)F)[C@H]1CC[C@H](C(=O)O)CC1` [Example 232] is 10 to 100 nM; for `Cc1ccc(NC(=O)N(c2ccccc2C(C)C)[C@H]2C[C@H](OCc3ccccc3)C2)c(OC(F)F)n1` [Example 23, 1-((1r,3r)-3-(benzyloxy)cyclobutyl)-3-(2-(difluoromethoxy)-6-methylpyridin-3-yl)-1-(2-isopropylphenyl)urea] it is 100 to 1000 nM; for `COc1ccc(NC(=O)N(c2ccccc2C(C)C)[C@H]2CC[C@@H](OC)CC2)c(OC(F)F)n1` [Example 39, 3-(2-(difluoromethoxy)-6-methoxypyridin-3-yl)-1-(2-isopropylphenyl)-1-((1s,4s)-4-methoxycyclohexyl)urea] it is 100 to 1000 nM. On the same count and under the same terms, then `COc1ccc(NC(=O)N(c2ccccc2C(C)C)[C@H]2CC[C@@](O)(C(F)(F)C(=O)O)CC2)c(OC(F)F)n1` [Example 321, 2-((1r,4r)-4-(3-(2-(difluoromethoxy)-6-methoxypyridin-3-yl)-1-(2-isopropylphenyl)ureido)-1-hydroxycyclohexyl)-2,2-difluoroacetic acid], with < 10 nM. For `Cc1ccc(NC(=O)N(c2ccccc2C(C)C)C2CC(CC(=O)O)C2)c(OC(F)F)n1` (stereo not drawn) [Example 160, 2-(3-(3-(2-(difluoromethoxy)-6-methylpyridin-3-yl)-1-(2-isopropylphenyl)ureido)cyclobutyl)acetic acid], the IC50 under setting [1] is < 10 nM.

Regarding `COc1ccc(NC(=O)N(c2ccccc2C(C)C)C2CCC(=O)CC2)c(OC(F)F)n1` [Example 276, 3-(2-(difluoromethoxy)-6-methoxypyridin-3-yl)-1-(2-isopropylphenyl)-1-(4-oxocyclohexyl)urea], under setting [1], the IC50 lay in the range of 100 to 1000 nM. The same measure, in the same setting: the figure for `COc1ccc(NC(=O)N(c2ccccc2C(C)C)[C@H]2C[C@@H]3CC[C@H]2N3C(C)=O)c(OC(F)F)n1` (racemic) [Example 60, rac-1-((1R,2S,4S)-7-acetyl-7-azabicyclo[2.2.1]heptan-2-yl)-3-(2-(difluoromethoxy)-6-methoxypyridin-3-yl)-1-(2-isopropylphenyl)urea] is > 1000 nM. Regarding `CC(=O)N1CCC(N(C(=O)Nc2ncc(Br)nc2OC(F)F)c2ccccc2C(C)C)CC1` [Example 184, 1-(1-acetylpiperidin-4-yl)-3-(5-bromo-3-(difluoromethoxy)pyrazin-2-yl)-1-(2-isopropylphenyl)urea], the IC50 (LPAR1 IC50) is 100 to 1000 nM. The same measure, in the same setting: the figure for `CC(=O)N1CCC(N(C(=O)Nc2ccc(C)nc2OC(F)F)c2cccc(C(C)C)c2)CC1` [Example 32, 1-(1-acetylpiperidin-4-yl)-3-(2-(difluoromethoxy)-6-methylpyridin-3-yl)-1-(3-isopropylphenyl)urea] is 100 to 1000 nM. As for `COc1cc(Cl)c(F)cc1NC(=O)N(c1ccccc1C(C)C)[C@H]1C[C@@H](CC(=O)O)C1` [Example 330], the IC50 under setting [1] is < 10 nM. `Cc1ccc(NC(=O)N(c2ccccc2C(C)C)[C@H]2[C@@H]3CN(C(=O)OC(C)(C)C)C[C@@H]32)c(OC(F)F)n1` [Example 9, tert-butyl (1R,5S,6s)-6-(3-(2-(difluoromethoxy)-6-methylpyridin-3-yl)-1-(2-isopropylphenyl)ureido)-3-azabicyclo[3.1.0]hexane-3-carboxylate]: the IC50 (LPAR1 IC50) is > 1000 nM.

Consider `Cc1ccc(NC(=O)N(c2ccccc2C(C)C)[C@H]2C[C@@H](O)C2)c(OC(F)F)n1` [Example 182], for which the IC50 under setting [1] was in the range of 100 to 1000 nM. The same measure, in the same setting: the figure for `Cc1ccc(NC(=O)N(c2ccccc2C(C)C)[C@H]2C[C@@H](C(N)=O)C2)c(OC(F)F)n1` [Example 187] is > 1000 nM; for `COC[C@H](C)Oc1cc(C)ncc1NC(=O)N(c1ccccc1C(C)C)[C@H]1CC[C@H](C(=O)O)CC1` [Example 317, trans-4-(1-(2-isopropylphenyl)-3-(4-(((S)-1-methoxypropan-2-yl)oxy)-6-methylpyridin-3-yl)ureido)cyclohexane-1-carboxylic acid] it is 100 to 1000 nM; for `Cc1ccc(NC(=O)N(c2ccccc2C(C)C)[C@H]2CC[C@H](CC(=O)O)CC2)c(OC(F)F)n1` [Example 165, 2-((1r,4r)-4-(3-(2-(difluoromethoxy)-6-methylpyridin-3-yl)-1-(2-isopropylphenyl)ureido)cyclohexyl)acetic acid] it is < 10 nM.

As for `CC(=O)N1CCC(N(C(=O)Nc2ccc(C)nc2OCC(F)(F)F)c2ccccc2C(C)C)CC1` [Example 104], the IC50 (LPAR1 IC50) lay within 100 to 1000 nM. In the case of `CC(=O)N[C@H]1CC[C@H](N(C(=O)Nc2ccc(C)nc2OC(F)F)c2ccccc2C(C)C)CC1` [Example 267, N-((1r,4r)-4-(3-(2-(difluoromethoxy)-6-methylpyridin-3-yl)-1-(2-isopropylphenyl)ureido)cyclohexyl)acetamide], under setting [1], the IC50 lay within 10 to 100 nM. As for `COC[C@H](C)Oc1nc(OC)ccc1NC(=O)N(c1ccccc1C(C)C)[C@H]1CC[C@H](C(=O)O)CC1` [Example 339, trans-4-(1-(2-isopropylphenyl)-3-(6-methoxy-2-(((S)-1-methoxypropan-2-yl)oxy)pyridin-3-yl)ureido)cyclohexane-1-carboxylic acid], the IC50 under setting [1] lay within 10 to 100 nM.

On to `Cc1ccc(NC(=O)N(c2ccccc2C(C)C)C2CC(NS(C)(=O)=O)C2)c(OC(F)F)n1` (stereo not drawn) [Example 272, N-(3-(3-(2-(difluoromethoxy)-6-methylpyridin-3-yl)-1-(2-isopropylphenyl)ureido)cyclobutyl)methanesulfonamide], for which the 50% inhibitory concentration (IC50) under setting [1] lay in the range of 10 to 100 nM. On the same count and under the same terms, the figure for `COc1cc(C)c(Cl)cc1NC(=O)N(c1ccccc1C(C)C)[C@H]1CC[C@H](C(=O)O)CC1` [Example 328, (1r,4r)-4-(3-(5-chloro-2-methoxy-4-methylphenyl)-1-(2-isopropylphenyl)ureido)cyclohexane-1-carboxylic acid] is 10 to 100 nM.

As to `COCc1ccc(NC(=O)N(c2ccccc2C(C)C)[C@H]2CC[C@H](C(=O)O)CC2)c(OCC(F)F)n1` [Example 318, (1r,4r)-4-(3-(2-(2,2-difluoroethoxy)-6-(methoxymethyl)pyridin-3-yl)-1-(2-isopropylphenyl)ureido)cyclohexane-1-carboxylic acid], the IC50 under setting [1] was 100 to 1000 nM. On the same count and under the same terms, the figure for `Cc1ccc(NC(=O)N(c2ccccc2C(C)C)[C@H]2CC[C@H](c3nnn[nH]3)CC2)c(OC(F)F)n1` [Example 248] is 100 to 1000 nM; for `CC(C)c1ccccc1N(C(=O)Nc1ccc(Cl)cn1)[C@H]1CC[C@H](C(=O)O)CC1` [Example 297, (1r,4r)-4-(3-(5-chloropyridin-2-yl)-1-(2-isopropylphenyl)ureido)cyclohexane-1-carboxylic acid] it is 10 to 100 nM; for `Cc1ccc(NC(=O)N(c2ccccc2C(C)C)[C@H]2C[C@@H](CC#N)C2)c(OC(F)F)n1` [Example 28, 1-((1r,3s)-3-(cyanomethyl)cyclobutyl)-3-(2-(difluoromethoxy)-6-methylpyridin-3-yl)-1-(2-isopropylphenyl)urea] it is 10 to 100 nM. In the case of `CC(=O)N1CC(N(C(=O)Nc2ncc(Cl)cc2OC(F)F)c2ccccc2C(C)C)C1` [Example 120], the 50% inhibitory concentration (IC50) under setting [1] is 100 to 1000 nM.

Usually IC50 stands for the concentration at which inhibition is half-maximal.
